Test results taken from patent publication US7919513B2, “Inhibitors of p38” (Vertex Pharmaceuticals Incorporated, priority 2000, dated 2011).

Tests used:
[1] = target: activated p38 (Homo sapiens, UniProt Q16539); assay: Kinase assay: inhibition of phosphorylation of EGF receptor peptide; assay type: biochemical; details: activated p38 5 nM, EGF receptor peptide 200 μM, ATP 100 μM, 30° C, HPLC
Description: A. Inhibition of Phosphorylation of EGF Receptor Peptide
This assay was carried out in the presence of 10 mM MgCl2, 25 mM β-glycerophosphate, 10% glycerol and 100 mM HEPES buffer at pH 7.6. For a typical IC50 determination, a stock solution was prepared containing all of the above components and activated p38 (5 nM). The stock solution was aliquotted into vials. A fixed volume of DMSO or inhibitor in DMSO (final concentration of DMSO in reaction was 5%) was introduced to each vial, mixed and incubated for 15 minutes at room temperature. EGF receptor peptide, […] (SEQ ID NO: 3), a phosphoryl acceptor in p38-catalyzed kinase reaction (1), was added to each vial to a final concentration of 200 μM. The kinase reaction was initiated with ATP (100 μM) and the vials were incubated at 30° C. After 30 minutes, the reactions were quenched with equal volume of 10% trifluoroacetic acid (TFA).
The phosphorylated peptide was quantified by HPLC analysis. Separation of phosphorylated peptide from the unphosphorylated peptide was achieved on a reverse phase column (Deltapak, 5 μm, C18 100D, Part no. 011795) with a binary gradient of water and acteonitrile, each containing 0.1% TFA. IC50 (concentration of inhibitor yielding 50% inhibition) was determined by plotting the percent (%) activity remaining against inhibitor concentration.

[2] = tested on: IL-1 production in whole blood; assay: Inhibition of IL-1 production in LPS-stimulated whole blood ("WB"); assay type: cell-based; details: Homo sapiens, 4 ng/ml LPS, overnight, ELISA IL-1β
Description: (§1) C. Inhibition of IL-1, TNF, IL-6 and IL-8 Production in LPS-Stimulated PBMCs
(§2) Inhibitors were serially diluted in DMSO from a 20 mM stock. At least 6 serial dilutions were prepared. Then 4× inhibitor stocks were prepared by adding 4 μl of an inhibitor dilution to 1 ml of RPMI1640 medium/10% fetal bovine serum. The 4× inhibitor stocks contained inhibitor at concentrations of 80 μM, 32 μM, 12.8 μM, 5.12 μM, 2.048 μM, 0.819 μM, 0.328 μM, 0.131 μM, 0.052 μM, 0.021 μM etc. The 4× inhibitor stocks were pre-warmed at 37° C. until use.
(§3) Alternatively, whole blood containing an anti-coagulant was used directly in the assay.
(§4) 100 μl of cell suspension or whole blood were placed in each well of a 96-well cell culture plate. Then 50 μl of the 4× inhibitor stock was added to the cells. Finally, 50 μl of a lipopolysaccharide (LPS) working stock solution (16 ng/ml in cell culture medium) was added to give a final concentration of 4 ng/ml LPS in the assay. […]
(§5) The next day the cells were mixed on a shaker for 3-5 minutes before centrifugation at 500×g for 5 minutes. Cell culture supernatants were harvested and analyzed by ELISA for levels of IL-1β (R & D Systems, Quantikine kits, #DBL50), TNF-α (BioSource, #KHC3012), IL-6 (Endogen, #EH2-IL6) and IL-8 (Endogen, #EH2-IL8) according to the instructions of the manufacturer. […]

[3] = tested on: TNF production in whole blood; assay: Inhibition of TNF production in LPS-stimulated whole blood ("WB"); assay type: cell-based; details: Homo sapiens, 4 ng/ml LPS, overnight, ELISA TNF-α
Description: as §1, §2, §3, §4, §5

[4] = tested on: IL-6 production in whole blood; assay: Inhibition of IL-6 production in LPS-stimulated whole blood ("WB"); assay type: cell-based; details: Homo sapiens, 4 ng/ml LPS, overnight, ELISA IL-6
Description: as §1, §2, §3, §4, §5

[5] = tested on: IL-1 production in LPS-stimulated PBMCs; assay: Inhibition of IL-1 production in LPS-stimulated PBMCs ("cell"); assay type: cell-based; details: Homo sapiens, PBMC, 4 ng/ml LPS, overnight, ELISA IL-1β
Description: as §1, §2
(§6) Fresh human blood buffy cells were separated from other cells in a Vacutainer CPT from Becton & Dickinson (containing 4 ml blood and enough DPBS without Mg^2+/Ca^2+ to fill the tube) by centrifugation at 1500×g for 15 min. […] The total cell number was determined using a Neubauer Cell Chamber and the cells were adjusted to a concentration of 4.8×10^6 cells/ml in cell culture medium (RPMI1640 supplemented with 10% fetal bovine serum). […]
as §5

[6] = tested on: TNF production in LPS-stimulated PBMCs; assay: Inhibition of TNF production in LPS-stimulated PBMCs ("cell"); assay type: cell-based; details: Homo sapiens, PBMC, 4 ng/ml LPS, overnight, ELISA TNF-α
Description: as §1, §2, §6, §5

Chain of activated p38 (Q16539 whole entry): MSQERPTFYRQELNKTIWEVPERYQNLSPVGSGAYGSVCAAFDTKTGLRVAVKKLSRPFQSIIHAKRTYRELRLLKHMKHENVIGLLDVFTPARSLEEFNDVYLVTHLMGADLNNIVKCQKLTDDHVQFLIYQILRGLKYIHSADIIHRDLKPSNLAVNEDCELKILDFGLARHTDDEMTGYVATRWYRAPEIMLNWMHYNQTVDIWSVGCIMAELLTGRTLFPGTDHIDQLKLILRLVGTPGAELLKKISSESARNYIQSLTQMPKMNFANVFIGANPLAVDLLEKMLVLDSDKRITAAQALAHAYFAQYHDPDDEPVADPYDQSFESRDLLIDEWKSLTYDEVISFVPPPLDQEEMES

IC50 [1]	IC50 [2]	IC50 [3]	IC50 [4]	SMILES	IC50 [5]	IC50 [6]
5 µM	2.2 µM	4.3 µM	0.8 µM	CN(C)/C=N/C(=O)OCc1ccc(N(C(=O)/N=C/N(C)C)c2c(F)cccc2F)nc1-c1ccc(F)cc1F [Compound 10]	–	–
1 µM	12.2 µM	20 µM	11 µM	CN(C)/C=N/C(=O)OCc1ccc(N(C(N)=O)c2c(F)cccc2F)nc1-c1ccc(F)cc1F [Compound 9]	0.05 µM	0.05 µM
